Values after ≈ are worked out from the molar mass of the structure shown.
Key:
[1] = tested on: Trichophyton mentagrophytes; assay: Antifungal activity against Trichophyton mentagrophytes; assay type: functional
KB = assay: Cytotoxicity against human KB cells; assay type: functional, cell-based
L1210 = assay: Cytotoxicity against mouse L1210 cells; assay type: functional, cell-based

SMILES | MIC [1] | IC50 (KB) | IC50 (L1210)
CO[C@@H](C[C@@H]1OC(=O)C[C@@H](O)C[C@H](N)CC(=O)[C@H](C)[C@H](OC)c2coc(n2)-c2coc(n2)-c2coc(n2)/C=C/CC[C@H]1C)[C@@H](C)CCC(=O)[C@H](C)[C@@H](C/C=C/N(C)C=O)OC [HALISHIGAMIDE A] | 0.1 µg/mL (≈ 0.117 µM) | 0.012 µg/mL (≈ 0.0141 µM) | 0.0036 µg/mL (≈ 0.00422 µM)
COC(CC1OC(=O)CC(O)C/C=C/C(=O)C(C)C(OC)C(=O)NC(=O)c2coc(n2)-c2coc(n2)/C=C/CCC1C)C(C)CCC(=O)C(C)C(C/C=C/N(C)C=O)OC (configuration not stated) [HALISHIGAMIDE B] | 25 µg/mL (≈ 29.7 µM) | 7.5 µg/mL (≈ 8.92 µM) | 4.4 µg/mL (≈ 5.23 µM)
COC(=O)c1coc(-c2coc(/C=C/CCC(C)C(CC(OC)C(C)CCC(=O)C(C)C(C/C=C/N(C)C=O)OC)OC(=O)CC(O)C/C=C/C(=O)C(C)C(OC)C(N)=O)n2)n1 (configuration not stated) [HALISHIGAMIDE C] | 25 µg/mL (≈ 28.6 µM) | 6.5 µg/mL (≈ 7.45 µM) | 5.2 µg/mL (≈ 5.96 µM)
COC(=O)c1coc(/C=C/CCC(C)C(CC(OC)C(C)CCC(=O)C(C)C(C/C=C/N(C)C=O)OC)OC(=O)CC(O)C/C=C/C(=O)C(C)C(OC)c2coc(C(N)=O)n2)n1 (configuration not stated) [HALISHIGAMIDE D] | 6.5 µg/mL (≈ 7.45 µM) | 1.8 µg/mL (≈ 2.06 µM) | 1.1 µg/mL (≈ 1.26 µM)

Reference: ChEMBL document CHEMBL1145697, “Halishigamides AD, New Cytotoxic Oxazole-Containing Metabolites from Okinawan Sponge Halichondria sp” (J Nat Prod, 1997)
